# In patent US8604217B2, “Compound, a process for its preparation, a pharmaceutical composition, use of a compound, a method for modulating or regulating serine/threonine kinases and a serine/threonine kinases modulating agent” (Selvita S.A., priority 2009, dated 2013):
# Legend:
# Experiment in all cases: KinaseProfiler kinase panel
# [1] = target: Ret(V804M)(h) (Homo sapiens (Human), UniProt P07949, V804M); assay type: biochemical
# [2] = target: HIPK3(h) (Homo sapiens (Human), UniProt Q9H422); assay type: biochemical
# [3] = target: ULK2(h) (Homo sapiens (Human), UniProt Q8IYT8); assay type: biochemical
# [4] = target: SAPK2a(h) (Homo sapiens (Human), UniProt Q16539); assay type: biochemical
# [5] = target: NEK7(h) (Homo sapiens (Human), UniProt Q8TDX7); assay type: biochemical
# [6] = target: cKit(D816V)(h) (Homo sapiens (Human), UniProt P10721, D816V); assay type: biochemical
# [7] = target: FGFR1(h) (Homo sapiens (Human), UniProt P11362); assay type: biochemical
# [8] = target: Haspin(h) (Homo sapiens (Human), UniProt Q8TF76); assay type: biochemical
# [9] = target: PTK5(h) (Homo sapiens (Human), UniProt P42685); assay type: biochemical
# [10] = target: Fms(h) (Homo sapiens (Human), UniProt P07333); assay type: biochemical
# [11] = target: CLK2(h) (Homo sapiens (Human), UniProt P49760); assay type: biochemical
# [12] = target: Fyn(h) (Homo sapiens (Human), UniProt P06241); assay type: biochemical
# [13] = target: PhKγ2(h) (Homo sapiens (Human), UniProt P15735); assay type: biochemical
# [14] = target: PKCε(h) (Homo sapiens (Human), UniProt Q02156); assay type: biochemical
# [15] = target: JNK2α2(h) (Homo sapiens (Human), UniProt P45984); assay type: biochemical
# [16] = target: Hck(h) (Homo sapiens (Human), UniProt P08631); assay type: biochemical
# [17] = target: Lyn(m) (Mus musculus (Mouse), UniProt P25911); assay type: biochemical
# [18] = target: ROCK-I(h) (Homo sapiens (Human), UniProt Q13464); assay type: biochemical
# [19] = target: EphB3(h) (Homo sapiens (Human), UniProt P54753); assay type: biochemical
# [20] = target: MAPK2(m) (Mus musculus (Mouse), UniProt P63085); assay type: biochemical
# [21] = target: PIM-1(h) (Homo sapiens (Human), UniProt P11309); assay type: biochemical
# [22] = target: MST2(h) (Homo sapiens (Human), UniProt Q13188); assay type: biochemical
# [23] = target: PASK(h) (Homo sapiens (Human), UniProt Q96RG2); assay type: biochemical
# [24] = target: PAK5(h) (Homo sapiens (Human), UniProt Q9P286); assay type: biochemical
# [25] = target: CHK1(h) (Homo sapiens (Human), UniProt O14757); assay type: biochemical
# [26] = target: Abl (Q252H) (h) (Homo sapiens (Human), UniProt P00519, Q252H); assay type: biochemical
# [27] = target: BTK(h) (Homo sapiens (Human), UniProt Q06187); assay type: biochemical
# [28] = target: cSRC(h) (Homo sapiens (Human), UniProt P12931); assay type: biochemical
# [29] = target: Aurora-B(h) (Homo sapiens (Human), UniProt Q96GD4); assay type: biochemical
# [30] = target: MKK6(h) (Homo sapiens (Human), UniProt P52564); assay type: biochemical
# [31] = target: ErbB4(h) (Homo sapiens (Human), UniProt Q15303); assay type: biochemical
# [32] = target: NEK6(h) (Homo sapiens (Human), UniProt Q9HC98); assay type: biochemical
# [33] = target: Met(Y1248D)(h) (Homo sapiens (Human), UniProt P08581, Y1248D); assay type: biochemical
# [34] = target: FAK(h) (Homo sapiens (Human), UniProt Q05397); assay type: biochemical
# [35] = tested on: CK1(y); assay type: biochemical, yeast; conditions: 1 μM
# [36] = target: ZIPK(h) (Homo sapiens (Human), UniProt O43293); assay type: biochemical
# [37] = target: BrSK2(h) (Homo sapiens (Human), UniProt Q8IWQ3); assay type: biochemical
# [38] = target: c-RAF(h) (Homo sapiens (Human), UniProt P04049, Y340D/Y341D); assay type: biochemical
# [39] = target: NLK(h) (Homo sapiens (Human), UniProt Q9UBE8); assay type: biochemical
# [40] = target: PAR-1Bα(h) (Homo sapiens (Human), UniProt Q7KZI7); assay type: biochemical
# PAR-1Bα(h), sequence (Q7KZI7 other isoform, or with tags, fused parts or gaps isoform Q7KZI7-4): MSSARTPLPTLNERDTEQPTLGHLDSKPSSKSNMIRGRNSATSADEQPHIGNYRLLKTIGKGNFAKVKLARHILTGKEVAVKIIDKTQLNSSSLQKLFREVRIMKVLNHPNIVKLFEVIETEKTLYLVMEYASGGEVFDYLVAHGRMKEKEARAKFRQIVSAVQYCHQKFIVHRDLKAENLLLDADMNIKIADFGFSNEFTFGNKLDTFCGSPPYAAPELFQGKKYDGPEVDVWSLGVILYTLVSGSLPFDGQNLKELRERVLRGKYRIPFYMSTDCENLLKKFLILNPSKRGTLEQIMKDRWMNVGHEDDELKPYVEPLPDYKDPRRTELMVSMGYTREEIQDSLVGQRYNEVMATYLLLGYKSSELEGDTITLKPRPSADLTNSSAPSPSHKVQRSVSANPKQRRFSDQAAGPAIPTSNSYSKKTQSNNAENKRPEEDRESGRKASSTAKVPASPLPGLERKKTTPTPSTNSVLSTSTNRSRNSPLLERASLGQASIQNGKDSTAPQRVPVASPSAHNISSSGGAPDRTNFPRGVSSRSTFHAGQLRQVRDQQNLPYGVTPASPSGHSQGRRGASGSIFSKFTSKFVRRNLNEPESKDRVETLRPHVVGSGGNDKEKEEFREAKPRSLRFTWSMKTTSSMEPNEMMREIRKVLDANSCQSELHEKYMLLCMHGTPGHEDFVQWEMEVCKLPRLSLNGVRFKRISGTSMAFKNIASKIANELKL
# Met(Y1248D)(h), sequence (P08581 other isoform, or with tags, fused parts or gaps Y1248D): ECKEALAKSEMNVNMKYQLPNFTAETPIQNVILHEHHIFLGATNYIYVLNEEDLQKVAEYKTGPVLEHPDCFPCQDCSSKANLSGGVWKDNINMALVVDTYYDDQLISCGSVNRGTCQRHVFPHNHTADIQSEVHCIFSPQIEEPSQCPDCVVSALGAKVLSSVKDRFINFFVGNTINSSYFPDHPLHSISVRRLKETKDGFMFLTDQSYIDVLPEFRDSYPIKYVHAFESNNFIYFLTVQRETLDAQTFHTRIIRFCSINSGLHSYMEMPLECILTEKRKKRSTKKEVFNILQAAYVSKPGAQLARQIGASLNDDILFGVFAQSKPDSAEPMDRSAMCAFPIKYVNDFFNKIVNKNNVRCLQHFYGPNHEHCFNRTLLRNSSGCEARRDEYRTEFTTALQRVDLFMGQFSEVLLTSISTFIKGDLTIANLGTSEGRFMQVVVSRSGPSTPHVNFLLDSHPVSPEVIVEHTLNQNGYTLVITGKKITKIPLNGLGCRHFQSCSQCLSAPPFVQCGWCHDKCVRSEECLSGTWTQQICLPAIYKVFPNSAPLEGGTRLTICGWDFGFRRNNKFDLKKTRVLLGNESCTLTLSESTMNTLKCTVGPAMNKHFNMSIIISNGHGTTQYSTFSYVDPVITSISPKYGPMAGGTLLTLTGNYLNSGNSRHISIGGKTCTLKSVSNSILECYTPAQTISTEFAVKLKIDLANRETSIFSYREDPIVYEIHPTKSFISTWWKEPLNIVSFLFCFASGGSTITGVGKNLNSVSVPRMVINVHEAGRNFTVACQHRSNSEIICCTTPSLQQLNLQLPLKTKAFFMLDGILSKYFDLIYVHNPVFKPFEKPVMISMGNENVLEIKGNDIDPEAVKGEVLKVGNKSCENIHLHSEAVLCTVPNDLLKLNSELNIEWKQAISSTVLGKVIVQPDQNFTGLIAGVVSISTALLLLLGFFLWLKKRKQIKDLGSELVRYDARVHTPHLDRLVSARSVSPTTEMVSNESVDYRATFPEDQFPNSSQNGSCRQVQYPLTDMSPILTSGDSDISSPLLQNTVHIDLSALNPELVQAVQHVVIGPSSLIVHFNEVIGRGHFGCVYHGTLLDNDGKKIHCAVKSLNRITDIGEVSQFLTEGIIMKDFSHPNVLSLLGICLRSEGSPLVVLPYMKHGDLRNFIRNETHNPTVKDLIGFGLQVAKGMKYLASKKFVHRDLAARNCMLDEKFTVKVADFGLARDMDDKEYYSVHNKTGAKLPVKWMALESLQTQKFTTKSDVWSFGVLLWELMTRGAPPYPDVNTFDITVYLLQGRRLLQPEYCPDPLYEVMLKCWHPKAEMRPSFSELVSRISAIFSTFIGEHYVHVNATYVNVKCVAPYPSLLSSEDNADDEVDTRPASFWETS
# ZIPK(h), sequence (O43293 whole entry): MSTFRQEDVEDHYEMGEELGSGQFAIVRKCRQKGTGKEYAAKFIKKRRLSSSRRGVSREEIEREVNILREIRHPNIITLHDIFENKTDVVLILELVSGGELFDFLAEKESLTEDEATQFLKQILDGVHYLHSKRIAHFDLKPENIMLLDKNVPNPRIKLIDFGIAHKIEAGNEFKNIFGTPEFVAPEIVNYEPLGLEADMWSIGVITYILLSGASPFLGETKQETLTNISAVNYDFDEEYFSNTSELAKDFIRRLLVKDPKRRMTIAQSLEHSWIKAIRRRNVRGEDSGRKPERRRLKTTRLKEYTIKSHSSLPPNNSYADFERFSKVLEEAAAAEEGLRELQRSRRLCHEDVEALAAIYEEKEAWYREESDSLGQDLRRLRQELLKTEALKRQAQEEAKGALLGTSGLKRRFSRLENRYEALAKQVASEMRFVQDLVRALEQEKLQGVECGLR
# Haspin(h), sequence (Q8TF76 whole entry): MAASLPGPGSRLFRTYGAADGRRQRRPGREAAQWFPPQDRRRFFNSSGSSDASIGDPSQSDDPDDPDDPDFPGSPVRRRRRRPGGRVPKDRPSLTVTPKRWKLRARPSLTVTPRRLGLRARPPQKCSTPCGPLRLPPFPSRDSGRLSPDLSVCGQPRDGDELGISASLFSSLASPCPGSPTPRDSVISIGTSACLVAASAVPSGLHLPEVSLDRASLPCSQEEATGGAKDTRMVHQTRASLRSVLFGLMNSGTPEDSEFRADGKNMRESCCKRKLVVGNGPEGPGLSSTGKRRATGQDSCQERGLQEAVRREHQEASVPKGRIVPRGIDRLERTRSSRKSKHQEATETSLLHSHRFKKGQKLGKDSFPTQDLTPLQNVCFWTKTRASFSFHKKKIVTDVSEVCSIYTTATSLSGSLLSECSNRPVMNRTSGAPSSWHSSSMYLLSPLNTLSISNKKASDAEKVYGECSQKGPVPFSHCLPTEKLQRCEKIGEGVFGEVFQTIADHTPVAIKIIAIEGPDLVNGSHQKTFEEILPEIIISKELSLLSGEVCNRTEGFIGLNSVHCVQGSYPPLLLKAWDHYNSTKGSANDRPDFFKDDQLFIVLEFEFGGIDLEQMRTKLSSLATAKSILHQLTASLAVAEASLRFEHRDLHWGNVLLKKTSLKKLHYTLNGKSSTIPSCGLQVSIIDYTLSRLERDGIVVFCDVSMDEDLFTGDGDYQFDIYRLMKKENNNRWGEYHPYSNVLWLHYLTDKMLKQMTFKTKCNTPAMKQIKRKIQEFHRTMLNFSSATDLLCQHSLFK
# Hck(h), sequence (P08631 whole entry): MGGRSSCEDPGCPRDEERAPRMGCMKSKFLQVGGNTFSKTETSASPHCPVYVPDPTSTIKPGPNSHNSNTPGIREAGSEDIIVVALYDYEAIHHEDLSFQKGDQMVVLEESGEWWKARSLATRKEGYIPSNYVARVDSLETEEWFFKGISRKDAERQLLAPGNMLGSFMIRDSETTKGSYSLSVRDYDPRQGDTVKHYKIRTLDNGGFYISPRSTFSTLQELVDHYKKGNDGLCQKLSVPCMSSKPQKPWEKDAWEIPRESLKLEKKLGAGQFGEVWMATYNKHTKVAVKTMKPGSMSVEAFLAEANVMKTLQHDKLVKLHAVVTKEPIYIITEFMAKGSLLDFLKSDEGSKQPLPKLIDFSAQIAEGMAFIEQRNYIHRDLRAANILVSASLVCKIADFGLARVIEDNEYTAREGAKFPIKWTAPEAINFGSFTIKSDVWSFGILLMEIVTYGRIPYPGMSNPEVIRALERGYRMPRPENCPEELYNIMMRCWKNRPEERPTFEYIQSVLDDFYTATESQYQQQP
# SAPK2a(h), sequence (Q16539 whole entry): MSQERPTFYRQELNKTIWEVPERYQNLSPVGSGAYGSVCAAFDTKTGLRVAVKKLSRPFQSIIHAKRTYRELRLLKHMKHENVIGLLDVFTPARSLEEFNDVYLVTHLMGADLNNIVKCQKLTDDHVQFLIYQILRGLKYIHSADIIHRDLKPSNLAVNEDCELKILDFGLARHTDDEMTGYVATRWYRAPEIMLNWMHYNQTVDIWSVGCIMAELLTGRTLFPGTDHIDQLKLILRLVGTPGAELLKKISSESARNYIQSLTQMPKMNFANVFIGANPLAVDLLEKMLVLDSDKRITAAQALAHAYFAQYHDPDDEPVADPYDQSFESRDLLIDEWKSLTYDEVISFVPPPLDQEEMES
# Aurora-B(h), sequence (Q96GD4 whole entry): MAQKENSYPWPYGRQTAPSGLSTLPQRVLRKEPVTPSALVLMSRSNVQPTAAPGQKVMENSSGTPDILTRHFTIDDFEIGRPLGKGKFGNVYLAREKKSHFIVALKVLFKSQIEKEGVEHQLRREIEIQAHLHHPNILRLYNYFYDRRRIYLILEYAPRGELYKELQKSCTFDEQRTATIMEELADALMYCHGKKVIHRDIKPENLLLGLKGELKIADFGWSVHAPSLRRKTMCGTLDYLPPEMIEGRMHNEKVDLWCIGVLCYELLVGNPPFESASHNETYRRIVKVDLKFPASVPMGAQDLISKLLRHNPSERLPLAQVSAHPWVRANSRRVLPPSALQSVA
# MKK6(h), sequence (P52564 whole entry): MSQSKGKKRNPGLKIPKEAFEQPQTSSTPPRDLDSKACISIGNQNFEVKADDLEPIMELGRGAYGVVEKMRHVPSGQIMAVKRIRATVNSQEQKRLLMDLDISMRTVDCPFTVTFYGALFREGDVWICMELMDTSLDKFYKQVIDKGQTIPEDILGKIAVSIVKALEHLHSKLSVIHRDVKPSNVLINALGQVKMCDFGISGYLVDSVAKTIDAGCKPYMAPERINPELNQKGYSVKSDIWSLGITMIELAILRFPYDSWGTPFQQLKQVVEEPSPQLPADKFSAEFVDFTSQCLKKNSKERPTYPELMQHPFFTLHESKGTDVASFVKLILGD
structure (smiles),measurement,setting,value
"CCn1c(N2CCNCC2)nc2c(Br)c(Br)c(Br)c(Br)c21 [Compound 416, 4,5,6,7-tetrabromo-1-ethyl-2-(piperazin-1-yl)-1H-benzo[d]imidazole]",remaining activity at 1 µM,[1],20%
same,remaining activity at 1 µM,[2],-1%
same,remaining activity at 1 µM,[3],88%
same,remaining activity at 1 µM,[4],99%
same,remaining activity at 1 µM,[5],115%
same,remaining activity at 1 µM,[6],61%
same,remaining activity at 1 µM,[7],99%
same,remaining activity at 1 µM,[8],2%
same,remaining activity at 1 µM,[9],99%
same,remaining activity at 1 µM,[10],72%
same,remaining activity at 1 µM,[11],2%
same,remaining activity at 1 µM,[12],73%
same,remaining activity at 1 µM,[13],88%
same,remaining activity at 1 µM,[14],104%
same,remaining activity at 1 µM,[15],100%
same,remaining activity at 1 µM,[16],79%
same,remaining activity at 1 µM,[17],73%
same,remaining activity at 1 µM,[18],90%
same,remaining activity at 1 µM,[19],121%
same,remaining activity at 1 µM,[20],82%
same,remaining activity at 1 µM,[21],1%
same,remaining activity at 1 µM,[22],93%
same,remaining activity at 1 µM,[23],28%
same,remaining activity at 1 µM,[24],93%
same,remaining activity at 1 µM,[25],113%
same,remaining activity at 1 µM,[26],98%
same,remaining activity at 1 µM,[27],107%
same,remaining activity at 1 µM,[28],79%
same,remaining activity at 1 µM,[29],80%
same,remaining activity at 1 µM,[30],43%
same,remaining activity at 1 µM,[31],89%
same,remaining activity at 1 µM,[32],97%
same,remaining activity at 1 µM,[33],81%
same,remaining activity at 1 µM,[34],94%
same,% remaining activity,[35],6%
same,remaining activity at 1 µM,[36],95%
same,remaining activity at 1 µM,[37],91%
same,remaining activity at 1 µM,[38],85%
same,remaining activity at 1 µM,[39],85%
same,remaining activity at 1 µM,[40],85%
